Test results reported in patent publication USRE47689E1, “Compounds for treating spinal muscular atrophy” (PTC Therapeutics, Inc., priority 2011, dated 2019).
Where two headings read alike, the source gives them in different places.

Columns and labels:
[1] = system: SMN2 minigene (full length SMN2 minigene mRNA containing SMN2 exon 7); assay: SMN2 minigene mRNA splicing RT-qPCR assay in cultured cells; format: cell-based, human; conditions: Homo sapiens, HEK293-H, read-out: EC1.5x for production of full length SMN2 mRNA
Outline: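 Full-length SMN2 minigene mRNA (exon 7 included), minigene-specific and not endogenous SMN, quantified by RT-qPCR multiplexed with GAPDH in stably transfected HEK293H cells after 24 h compound exposure at 37° C. Abundance from efficiency-corrected Ct, normalized to GAPDH and vehicle; EC1.5x reported as star bins.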

Smn protein = Smn protein assay in cultured cells (SMN HTRF); format: cell-based, human; conditions: 48 hours; for maximum fold (Fold) increase of Smn protein: SMA patient fibroblast cells, 7-point concentration data, fold increase relative to vehicle control (SMN HTRF); for EC1.5x (concentration giving 1.5-fold Smn protein increase): SMA Type 1 patient fibroblast cells (GM03813), 7-point concentration curve, SMN HTRF, concentration producing 1.5 times Smn protein vs DMSO vehicle control, read-out: EC1.5x for Smn protein expression
Outline: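 Smn in SMA fibroblast lysates, measured by anti-SMN HTRF after 48 h compound exposure; EC1.5x from fold change over vehicle.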

[2] = HEK293H cells stably transfected with SMN2-A minigene, 24 hours, 7-point concentration curve, 1.5-fold relative to vehicle-treated cells

| Compound | EC (1.5-fold) [1, 2] | maximum fold (Fold) increase of Smn protein (Smn protein) | melting point | EC1.5x (concentration giving 1.5-fold Smn protein increase) (Smn protein) | EC (1.5-fold) ([1]; 24 h) |
| --- | --- | --- | --- | --- | --- |
| CCCN1CCN(c2ccc3cc(-c4cn5cc(C)ccc5n4)c(=O)oc3c2)CC1 [Compound 207, 3-(6-methylimidazo[1,2-a]pyridin-2-yl)-7-(4-propylpiperazin-1-yl)-2H-chromen-2-one] | 1 to 3 µM | ** (fold increase between >1.2 and ≤1.35) | 220 to 222 °C | – | – |
| Cc1cn2cc(-c3cc4ccc(C5CCN(CC(C)C)CC5)cc4oc3=O)nc2cn1 [Compound 916, 3-(6-methylimidazo[1,2-a]pyrazin-2-yl)-7-[1-(2-methylpropyl)piperidin-4-yl]-2H-chromen-2-one] | 0.1 to 0.3 µM | **** (fold increase between >1.5 and ≤1.65) | 260 to 270 °C | 300 to 1000 nM | – |
| Cc1cc(F)c2nc(-c3cc4ccc(N5CCCNCC5)cc4oc3=O)cn2c1 [Compound 427, 7-(1,4-diazepan-1-yl)-3-(8-fluoro-6-methylimidazo[1,2-a]pyridin-2-yl)-2H-chromen-2-one] | 0.3 to 1 µM | *** (fold increase between >1.35 and ≤1.5) | 242 to 252 °C | – | – |
| C[C@@H]1CN(c2ccc3cc(-c4cn5ccsc5n4)c(=O)oc3c2)CCN1 [Compound 204, 3-(imidazo[2,1-b][1,3]thiazol-6-yl)-7-[(3R)-3-methylpiperazin-1-yl]-2H-chromen-2-one] | 0.1 to 0.3 µM | *** (fold increase between >1.35 and ≤1.5) | 233 to 237 °C | – | – |
| Cc1cn2cc(-c3cc4ccc(N5CCN(C)[C@@H](C)C5)cc4oc3=O)nc2c(C)n1 [Compound 672, 3-(6,8-dimethylimidazo[1,2-a]pyrazin-2-yl)-7-[(3S)-3,4-dimethylpiperazin-1-yl]-2H-chromen-2-one] | < 0.1 µM | **** (fold increase between >1.5 and ≤1.65) | 211 to 215 °C | < 300 nM | – |
| Cc1cn2cc(-c3cc4ccc(N(C)[C@@H]5CCN(C)C5)cc4oc3=O)nc2c(C)n1 [Compound 707, 3-(6,8-dimethylimidazo[1,2-a]pyrazin-2-yl)-7-{methyl[(3R)-1-methylpyrrolidin-3-yl]amino}-2H-chromen-2-one] | < 0.1 µM | **** (fold increase between >1.5 and ≤1.65) | 179 to 186 °C | 300 to 1000 nM | – |
| Cc1ccc2nc(-c3cc4ccc(N(C)C5CCN(C)CC5)cc4oc3=O)cn2c1 [Compound 282, 3-(6-methylimidazo[1,2-a]pyridin-2-yl)-7-[methyl(1-methylpiperidin-4-yl)amino]-2H-chromen-2-one] | – | * (maximum fold increase of ≤1.2) | 181 to 184 °C | – | 1 to 3 µM |
| CN1CCN(c2ccc3cc(-c4cn5cccnc5n4)c(=O)oc3c2)CC1 [Compound 87, 3-(imidazo[1,2-a]pyrimidin-2-yl)-7-(4-methylpiperazin-1-yl)-2H-chromen-2-one] | 0.3 to 1 µM | **** (fold increase between >1.5 and ≤1.65) | > 310 °C | 1000 to 3000 nM | – |
| Cc1cn2cc(-c3cc4ccc(CCN(C)CCO)cc4oc3=O)nc2c(C)n1 [Compound 871, 3-(6,8-dimethylimidazo[1,2-a]pyrazin-2-yl)-7-{2-[(2-hydroxyethyl)(methyl)amino]ethyl}-2H-chromen-2-one] | < 0.1 µM | **** (fold increase between >1.5 and ≤1.65) | 168 to 172 °C | < 300 nM | – |
| CCN(CC)Cc1ccc2cc(-c3nc4ccccc4s3)c(=O)oc2c1 [Compound 57, 3-(1,3-benzothiazol-2-yl)-7-[(diethylamino)methyl]-2H-chromen-2-one] | 1 to 3 µM | ** (fold increase between >1.2 and ≤1.35) | 116 to 119 °C | – | – |
| Cc1ccc2nc(-c3cc4ccc(N5C[C@@H](C)N[C@@H](C)C5)cc4oc3=O)cn2n1 [Cpd 617, 7-[(3R,5S)-3,5-dimethylpiperazin-1-yl]-3-(6-methylimidazo[1,2-b]pyridazin-2-yl)-2H-chromen-2-one] | < 0.1 µM | *** (fold increase between >1.35 and ≤1.5) | 225 to 227 °C | – | – |
| Cc1cn2cc(-c3cc4ccc(OCCN5CCOCC5)cc4oc3=O)nc2c(C)n1 [Compound 956, 3-(6,8-dimethylimidazo[1,2-a]pyrazin-2-yl)-7-[2-(morpholin-4-yl)ethoxy]-2H-chromen-2-one] | 0.1 to 0.3 µM | ***** (fold increase >1.65) | 175 to 177 °C | 1000 to 3000 nM | – |
| Cc1nc(Cl)cn2cc(-c3cc4ccc(N5CCN(C)CC5)cc4oc3=O)nc12 [Compound 764, 3-(6-chloro-8-methylimidazo[1,2-a]pyrazin-2-yl)-7-(4-methylpiperazin-1-yl)-2H-chromen-2-one] | < 0.1 µM | ** (fold increase between >1.2 and ≤1.35) | 217 to 220 °C | – | – |
| Cc1cn2cc(-c3cc4ccc(CN(C)C)cc4oc3=O)nc2c(C)n1 [Cpd 846, 7-[(dimethylamino)methyl]-3-(6,8-dimethylimidazo[1,2-a]pyrazin-2-yl)-2H-chromen-2-one] | 0.1 to 0.3 µM | ***** (fold increase >1.65) | 192 to 196 °C | 300 to 1000 nM | – |
| Cc1cn2cc(-c3cc4ccc(N(C)[C@H]5CCNC5)cc4oc3=O)nc2c(C)n1 [Cpd 620, 3-(6,8-dimethylimidazo[1,2-a]pyrazin-2-yl)-7-{methyl[(3S)-pyrrolidin-3-yl]amino}-2H-chromen-2-one] | < 0.1 µM | **** (fold increase between >1.5 and ≤1.65) | 192 to 202 °C | < 300 nM | – |
| Cc1cc2cc(-c3cc4ccc(N5CCN6CCC[C@H]6C5)cc4oc3=O)oc2c(C)n1 [Compound 745, 3-(5,7-dimethylfuro[2,3-c]pyridin-2-yl)-7-[(8aS)-hexahydropyrrolo[1,2-a]pyrazin-2(1H)-yl]-2H-chromen-2-one] | < 0.1 µM | ***** (fold increase >1.65) | 203 to 205 °C | < 300 nM | – |
| CN1CCN(c2ccc3cc(-c4cn5cc(F)ccc5n4)c(=O)oc3c2)CC1 [Compound 138, 3-(6-fluoroimidazo[1,2-a]pyridin-2-yl)-7-(4-methylpiperazin-1-yl)-2H-chromen-2-one] | 1 to 3 µM | ** (fold increase between >1.2 and ≤1.35) | 266 to 269 °C | – | – |
| Cc1ccc2nc(-c3cc4ccc(N5CC6CCCNC6C5)cc4oc3=O)cn2c1 (centres unmarked) [Compound 255, 3-(6-methylimidazo[1,2-a]pyridin-2-yl)-7-(octahydro-6H-pyrrolo[3,4-b]pyridin-6-yl)-2H-chromen-2-one] | 3 to 30 µM | * (maximum fold increase of ≤1.2) | 220 to 230 °C | – | – |
| Cc1csc2nc(-c3cc4ccc(N5CCCN(C)CC5)cc4oc3=O)cn12 [Compound 179, 7-(4-methyl-1,4-diazepan-1-yl)-3-(3-methylimidazo[2,1-b][1,3]thiazol-6-yl)-2H-chromen-2-one] | 1 to 3 µM | *** (fold increase between >1.35 and ≤1.5) | 182 to 185 °C | – | – |
| CCCN1CCN(c2ccc3cc(-c4cn5cccnc5n4)c(=O)oc3c2)CC1 [Compound 109, 3-(imidazo[1,2-a]pyrimidin-2-yl)-7-(4-propylpiperazin-1-yl)-2H-chromen-2-one] | 1 to 3 µM | *** (fold increase between >1.35 and ≤1.5) | 291 to 293 °C | 3000 to 10000 nM | – |
| O=c1oc2cc(N3CCNCC3)cc(F)c2cc1-c1nc2ccccc2o1 [Compound 159, 3-(1,3-benzoxazol-2-yl)-5-fluoro-7-(piperazin-1-yl)-2H-chromen-2-one] | 0.3 to 1 µM | *** (fold increase between >1.35 and ≤1.5) | 245 to 250 °C | – | – |
| Cc1cn2cc(-c3cc4ccc(N[C@H]5CCN(C)C5)cc4oc3=O)nc2c(C)n1 [Compound 657, 3-(6,8-dimethylimidazo[1,2-a]pyrazin-2-yl)-7-{[(3S)-1-methylpyrrolidin-3-yl]amino}-2H-chromen-2-one] | < 0.1 µM | **** (fold increase between >1.5 and ≤1.65) | 223 to 233 °C | < 300 nM | – |
| COc1cc(OC)cc(-c2cc3ccc(N4CCN[C@@H](C)C4)cc3oc2=O)c1 [Compound 413, 3-(3,5-dimethoxyphenyl)-7-[(3S)-3-methylpiperazin-1-yl]-2H-chromen-2-one] | 1 to 3 µM | * (maximum fold increase of ≤1.2) | 149 to 151 °C | – | – |
